Laboratory results published in publication PMC3108484 (Frontiers in Pharmacology, 2011).
Like-named read-outs stand apart in the source and are kept apart here.

What was measured:
5-HT4 receptor = 5-HT4 receptor (Cavia porcellus, UniProt O70528); test: Guinea pig colonic longitudinal muscle/myenteric plexus; details: for Guinea pig colonic LMMP contractile activity IA (mean % 5-HT max ± SEM): isolated tissue, % of primed 5-HT (0.3 μM) maximum
hERG potassium channel = hERG potassium channel (Homo sapiens, UniProt Q12809); test: in vitro
hERG potassium channel, sequence (Q12809 whole entry): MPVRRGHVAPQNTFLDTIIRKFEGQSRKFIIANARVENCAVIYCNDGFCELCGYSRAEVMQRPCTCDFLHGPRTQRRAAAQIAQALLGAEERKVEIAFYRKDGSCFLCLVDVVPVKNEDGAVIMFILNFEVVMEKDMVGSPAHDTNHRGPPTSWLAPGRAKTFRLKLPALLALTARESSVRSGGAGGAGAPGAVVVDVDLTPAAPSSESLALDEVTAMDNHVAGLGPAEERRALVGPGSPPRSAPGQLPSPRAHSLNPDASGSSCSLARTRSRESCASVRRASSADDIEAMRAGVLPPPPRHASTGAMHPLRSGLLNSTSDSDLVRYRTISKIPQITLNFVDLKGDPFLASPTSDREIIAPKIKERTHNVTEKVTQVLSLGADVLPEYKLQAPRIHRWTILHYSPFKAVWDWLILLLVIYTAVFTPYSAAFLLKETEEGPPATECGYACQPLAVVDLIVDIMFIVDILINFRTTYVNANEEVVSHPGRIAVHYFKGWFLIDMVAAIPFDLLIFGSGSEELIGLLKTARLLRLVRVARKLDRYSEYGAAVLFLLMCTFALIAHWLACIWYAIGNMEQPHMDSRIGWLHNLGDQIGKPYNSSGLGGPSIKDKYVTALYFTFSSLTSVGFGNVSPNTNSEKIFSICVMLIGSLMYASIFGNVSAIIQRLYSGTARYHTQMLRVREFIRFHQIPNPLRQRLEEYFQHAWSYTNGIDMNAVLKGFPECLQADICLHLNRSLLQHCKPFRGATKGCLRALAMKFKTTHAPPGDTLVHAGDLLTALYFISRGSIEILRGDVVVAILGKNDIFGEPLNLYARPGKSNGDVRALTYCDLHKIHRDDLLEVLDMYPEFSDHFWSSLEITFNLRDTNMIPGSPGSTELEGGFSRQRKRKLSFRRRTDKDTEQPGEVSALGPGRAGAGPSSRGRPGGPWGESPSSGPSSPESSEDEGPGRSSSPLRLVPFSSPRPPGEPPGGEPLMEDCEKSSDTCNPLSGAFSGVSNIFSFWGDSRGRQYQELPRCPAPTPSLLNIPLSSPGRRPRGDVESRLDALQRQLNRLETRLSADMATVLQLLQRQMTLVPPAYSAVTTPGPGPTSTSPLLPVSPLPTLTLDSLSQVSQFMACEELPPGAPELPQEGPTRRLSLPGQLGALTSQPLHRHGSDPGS

rat esophagus = test: Rat esophageal relaxation; format: in vivo; details: cumulative i.d. dosing, anesthetized rats
human 5-HT4(c) receptor = human 5-HT4(c) receptor (Homo sapiens, UniProt Q13639); format: cell-based; details: for pKb of GR113808 (Schild regression): GR113808 0.6, 1.7, or 5 nM, 95% CI
human 5-HT4(c) receptor, sequence (Q13639 1-380 isoform Q13639-4): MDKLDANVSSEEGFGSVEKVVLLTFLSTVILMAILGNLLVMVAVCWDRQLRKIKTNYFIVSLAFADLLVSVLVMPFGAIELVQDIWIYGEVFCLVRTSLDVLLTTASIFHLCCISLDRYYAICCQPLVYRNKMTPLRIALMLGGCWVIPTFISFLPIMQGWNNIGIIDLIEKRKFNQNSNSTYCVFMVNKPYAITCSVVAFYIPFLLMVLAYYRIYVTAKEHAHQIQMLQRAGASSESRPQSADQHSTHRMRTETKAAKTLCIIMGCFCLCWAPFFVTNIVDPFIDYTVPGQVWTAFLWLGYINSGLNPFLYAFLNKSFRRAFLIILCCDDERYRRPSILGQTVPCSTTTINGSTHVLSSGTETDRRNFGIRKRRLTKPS

[1] = target: human 5-HT4(c) (h5-HT4(c)) receptor (Homo sapiens, UniProt Q13639); test: biochemical
human 5-HT4(c) (h5-HT4(c)) receptor, sequence (Q13639 1-380 isoform Q13639-4): as above

[2] = tested on: canine antrum, duodenum, and jejunum; test: Dog gastrointestinal contractility; format: in vivo; details: oral, conscious fasted dogs; TD-8954 0.01 and 0.03 mg/kg, tegaserod 0.1 and 0.3 mg/kg

5-HT4 receptor, sequence (O70528 whole entry): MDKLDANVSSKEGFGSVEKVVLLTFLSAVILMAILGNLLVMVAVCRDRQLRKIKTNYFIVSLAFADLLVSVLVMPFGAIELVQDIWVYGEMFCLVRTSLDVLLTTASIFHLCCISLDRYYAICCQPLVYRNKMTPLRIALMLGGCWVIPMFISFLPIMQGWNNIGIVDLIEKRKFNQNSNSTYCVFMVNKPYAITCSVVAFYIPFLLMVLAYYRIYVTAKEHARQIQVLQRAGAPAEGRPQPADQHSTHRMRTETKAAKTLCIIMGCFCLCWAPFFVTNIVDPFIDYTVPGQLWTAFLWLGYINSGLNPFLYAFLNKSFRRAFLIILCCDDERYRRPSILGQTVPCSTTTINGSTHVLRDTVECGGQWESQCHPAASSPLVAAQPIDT

Question: How did the “Guinea pig colonic LMMP contractile activity IA (mean % 5-HT max ± SEM)” value (5-HT4 receptor) turn out when `COc1cc(N)c(Cl)cc1C(=O)NC1CCN(CCCOc2ccc(F)cc2)CC1OC` (stereo not shown) [Cisapride, cisapride] was run?
Answer: The value was 75 ± 3 % 5-HT max.

Question: What about the “Guinea pig colonic LMMP contractile activity IA (mean % 5-HT max ± SEM)” value (5-HT4 receptor; listed as cisapride) of the same molecule?
Answer: Its value is 75 % 5-HT max.

Question: And the inhibition at 0.02 µM (hERG potassium channel)?
Answer: Its inhibition at 0.02 µM is 65%.

Question: And the “dose associated with a relaxation response of 0.1 mm” value (“dose associated” below) (rat esophagus)?
Answer: The value was 2.66 mg/kg.

Question: With `Cn1cc(C(=O)OCC2CCN(CCNS(C)(=O)=O)CC2)c2ccccc21` [GR113808] as the molecule, how does the “pKb of GR113808 (Schild regression)” value (human 5-HT4(c) receptor; against 5-HT, cAMP accumulation) read?
Answer: Its value is 10.3 (95% CI: 10.2–10.4).

Question: What about the “pKb of GR113808 (Schild regression)” value (human 5-HT4(c) receptor; against TD-8954, cAMP accumulation) of the same molecule?
Answer: Its value is 10.3 (95% CI: 10.2–10.5).

Question: Which EC50 (human 5-HT4(c) receptor) does the source give for `CCOc1cc(N)c(Cl)cc1C(=O)NCC1CN(Cc2ccc(F)cc2)CCO1` (stereo not shown) [Mosapride, mosapride] here?
Answer: Its EC50 is 501 nM.

Question: And the EC50 (5-HT4 receptor)?
Answer: Its EC50 is 3980 nM.

Question: What about the “Guinea pig colonic LMMP contractile activity IA (mean % 5-HT max ± SEM)” value (5-HT4 receptor) of the same molecule?
Answer: The value was 37 ± 2 % 5-HT max.

Question: What about the “Guinea pig colonic LMMP contractile activity IA (mean % 5-HT max ± SEM)” value (5-HT4 receptor; listed as mosapride) of the same molecule?
Answer: The value was 37 % 5-HT max.

Question: And the “dose associated” value (rat esophagus)?
Answer: The value was 4.37 mg/kg.

Question: What about the Ki [1] of the same molecule?
Answer: Its Ki is 158 nM.

Question: With `COCCCN1CCC(NC(=O)c2cc(Cl)c(N)c3c2OCC3)CC1` [Prucalopride, prucalopride] as the molecule, how does the “dose associated” value (rat esophagus) read?
Answer: The value was 0.30 mg/kg.

Question: How did the “effect on contractility in the antrum, duodenum, and jejunum” value [2] turn out when `[H]/N=C(/NCCCCC)N/N=C/c1c[nH]c2ccc(OC)cc12` [Tegaserod, tegaserod] was run?
Answer: Its value is “increases in contractility”.

Question: And the “Guinea pig colonic LMMP contractile activity IA (mean % 5-HT max ± SEM)” value (5-HT4 receptor)?
Answer: The value was 45 ± 13 % 5-HT max.

Question: And the “Guinea pig colonic LMMP contractile activity IA (mean % 5-HT max ± SEM)” value (5-HT4 receptor; listed as tegaserod)?
Answer: Its value is 45 % 5-HT max.

Question: And the “dose associated” value (rat esophagus)?
Answer: Its value is 2.43 mg/kg.

Question: And the Ki [1]?
Answer: The Ki was 2.51 nM.

Question: For `CCCCN1CCC(CNC(=O)c2c3n(c4ccccc24)CCCO3)CC1` [piboserod], which “shift of the TD-8954 concentration–response curve” value (5-HT4 receptor; piboserod 0.3 μM, guinea pig colonic LMMP) is on record?
Answer: Its value is 614 fold.
